Data from article PMC10314922, “Fluorescence lifetime FRET assay for live-cell high-throughput screening of the cardiac SERCA pump yields multiple classes of small-molecule allosteric modulators” (Scientific Reports, 2023).
“And” between values parts separate entries of the source, which are not always exact repeats. Equal values may be shown once. “Also recorded” adds a separate entry of the source.

Experiments:
[1] = molecular target: T1, human two-color SERCA2a (2CS) biosensor (Homo sapiens, UniProt P16615, INS508[…]); experiment: FRET concentration response curves (FLT-FRET) with the 2CS biosensor in live HEK cells; type: cell-based
T1 construct: expressed in transfected cells
From the text: A two-color intramolecular human SERCA2a (2CS) biosensor, based on human cardiac SERCA2a fused to green fluorescent protein (eGFP) and red fluorescent protein (tagRFP) was developed to detect structural changes that are related to the functional changes of SERCA[20],[22],[25]. Briefly, tagRFP was genetically fused to the N-terminus of SERCA (A-domain) and eGFP was inserted as an intrasequence tag before residue 509 in the nucleotide-binding domain (N-domain)[60],[61]. Donor-only and acceptor-only (1CS) biosensors were created in a similar manner as the 2CS biosensor but with the construct containing either only eGFP or only tag-RFP, respectively. […] A null-biosensor construct consisting of eGFP and tagRFP connected by a 32-residue unstructured flexible linker peptide (G32R) was created as described previously[23],[25]. All constructs were cloned into expression vectors containing the genes for antibiotic resistance to G418, puromycin, or blasticidin.
Stable cell lines were generated using either human embryonic kidney (HEK) HEK293 (ATCC, Manassas, VA) or HEK293-6E (National Research Council, Canada) cells. Briefly, cells were transiently transfected with 2CS, 1CS, or G32R null-biosensor plasmids using Lipofecatime 3000 or 293fectin (Thermo Fisher Scientific). Flow cytometry was used to select and enrich for the population of cells expressing respective biosensors. Stable HEK293 cell lines were maintained in phenol red-free DMEM media (Gibco, Waltham, MA) supplemented with 2 mM GlutaMAX (Gibco, Waltham, MA), 10% fetal bovine serum (FBS) (Atlanta Biologicals, Lawrenceville, GA), 1 IU/mL penicillin/streptomycin (Gibco, Waltham, MA), and 250 μg/mL G418 (Fisher Scientific). Stable HEK293-6E cell lines were maintained in F17 media (Sigma Aldrich) supplemented with Kolliphor p188 (Sigma Aldrich, St. Louis, MO), […] GlutaMAX, and either 1 μg/mL puromycin (Invitrogen, Carlsbad, CA) or 2 μg/mL blasticidin (Goldbio) as a selection antibiotic. All cell lines were grown at 37 °C with 5% CO2.
FRET CRC assay plates (0.78–100 μM compound range) with at least ten different compound concentrations were made by adding the appropriate volume of compound or DMSO into black 384 well plates (Greiner Bio-One) using a Mosquito HV (SPTLabTech, United Kingdom). Subsequent Ca^2+-ATPase activity and Ca^2+-transport CRC assay plates (0–50 μM compound range) with repurchased compounds were made in a similar manner using with the Echo 550 (Beckman Coulter) using either 384 well transparent plates (Greiner Bio-One) or black-walled plates with transparent bottoms (Greiner Bio-One), respectively.
On each day of screening, cells were harvested, washed three times with PBS, and centrifuged at 300 g for 5 min. Cells were filtered using a 70 µm cell strainer and diluted to 1–2 × 10^6 cells/mL. Cell concentration and viability were assessed using the Cell countess (Invitrogen) and trypan blue assay. During assays, cells were constantly and gently stirred using a magnetic stir bar at room temperature, keeping the cells in suspension and evenly distributed to avoid clumping. HEK 293-cells expressing 2CS were dispensed at 5 μL or […] per well into assay plates (dispensed into 40 assay plates, each containing 1536 wells) pre-plated with compounds (from a DIVERset 50,000 compound library) using a Multdrop Combi liquid dispenser (Thermo Fisher Scientific, Pittsburg, PA) and sealed until needed. Because the kinetics of membrane permeability, diffusion, and/or binding of the compound to live cells may be compound-dependent, we tested two incubation times, 20 min and 120 min, for the FRET CRC. […] Plates containing eight-point concentration curves of three tool compounds (known SERCA effectors thapsigargin, BHQ, and CPA)[22] were used as positive controls for biosensor function and performance prior to running the full-scale FRET-HTS assay. […]

[2] = molecular target: T2, SERCA2a (Sus scrofa, UniProt P11607); experiment: NADH-linked Ca2+-ATPase activity assay in pig cardiac SR (pCSR) vesicles; type: biochemical; conditions: for Ca2+-ATPase C10: concentration yielding 10% effect
T2 construct: Cardiac SR vesicles were isolated from fresh porcine left ventricular tissue using differential centrifugation; from tissue; host or cells: porcine left ventricular tissue (cardiac SR vesicles)
Protocol: (§1) Cardiac SR vesicles were isolated from fresh porcine left ventricular tissue using differential centrifugation of the homogenized tissue as previously described. The SR vesicles were flash-frozen and stored at − 80 °C until needed. The SERCA concentration in the ER preparations purified from HEK cell homogenate is at least 10 times less than in purified porcine cardiac SR[20], but there was sufficient expression of the fluorescent SERCA2a biosensor in HEK cells to detect FRET with high precision by FLT[22],[23],[26].
Functional assays were performed using porcine cardiac SR (pCSR) vesicles. An enzyme-coupled, NADH-linked ATPase assay was used to measure SERCA ATPase activity in 384-well microplates. Each well contained 50 mM MOPS (pH 7.0), 100 mM KCl, 1 mM EGTA, 0.2 mM NADH, 1 mM phosphoenol pyruvate, 10 IU/mL of pyruvate kinase, 10 IU/mL of lactate dehydrogenase, 7 µM of the calcium ionophore A23187 (Sigma), and CaCl2 was added to set free [Ca^2+] to three different concentrations. Ca^2+-ATPase activity was measured at three [Ca^2+]: [Ca^2+]MAX (saturating, pCa 5.4), [Ca^2+]MID (subsaturating, midpoint, pCa 6.2), and [Ca^2+]BAS (basal non-activating, pCa 8.0). 10 μg/mL of SR vesicle, calcium, compound (0.048 to 50 μM), and assay mix were incubated for 20 min at room temperature before measurement of functional assays with each of the 18 hit compounds, because a shorter incubation time than the FRET live-cell assays achieved optimal responses. The assay was started upon the addition of MgATP, at a final concentration of 5 mM (total volume to 80 μL), and absorbance was read at 340 nm in a SpectraMax Plus^384 microplate spectrophotometer (Molecular Devices, Sunnyvale, CA).
(§2) SERCA2a activity, F (rate of ATP hydrolysis or Ca^2+ uptake), was measured at varying pCa and varying compound concentration. F measured at [Ca^2+]MAX (saturating, pCa 5.4) or [Ca^2+]MID (subsaturating, midpoint, pCa 6.2) was corrected by subtracting the basal rate at pCa 8.0) and the % effect due to compound was reported. Concentration response curves (CRC) were fitted using the Hill function to determine VMAX (the activity at saturating [compound]), and EC50, the compound concentration at 50% effect.

[3] = molecular target: T2, SERCA2a; experiment: Oxalate-supported Fluo-4 Ca2+-uptake (Ca2+-transport) assay in pig cardiac SR (pCSR) vesicles; type: biochemical; conditions: for CR (coupling ratio) VU/VA: maximum Ca2+-uptake rate / Ca2+-ATPase rate at [Ca2+]MAX, DMSO control = 0.66; for Ca2+-Uptake C10: concentration yielding 10% effect; for Inhibition of Ca2+-uptake (class): strong / moderate / mild
Protocol: as §1
Ca^2+-transport assays were performed with similar porcine SR samples as in the Ca^2+-ATPase assays described above. The compound effect on the Ca^2+-transport activity of SERCA2a was determined using an oxalate-supported assay in which the change in fluorescence in a Ca^2+-sensitive dye, Fluor-4, was determined as previously described. A buffered solution containing 50 mM MOPS (pH 7.0), 100 mM KCl, 30 mg/mL sucrose, 1 mM EGTA, 10 mM potassium oxalate, 2 µM Fluo-4, 30 µg/mL porcine cardiac SR vesicles, CaCl2 calculated to reach the free [Ca^2+] (pCa 8.0, 6.2, and 5.4), and compound (0.048 to 50 μM) was dispensed into 384-well black walled, transparent bottomed plates (Greiner Bio-One) containing the tested small molecule and incubated at 22℃ for 20 min while covered and protected from light. To start the reaction, MgATP was added to a final concentration of 5 mM, and the decrease in 485-nm excited fluorescence of Fluo-4 was monitored at 520 nm for 15 min using a FLIPR Tetra (Molecular Devices, San Jose, CA).
as §2

[4] = [Ca2+]MAX (pCa5.4), maximal compound effect vs DMSO control, pCSR
[5] = [Ca2+]MID (pCa6.2), maximal compound effect vs DMSO control, pCSR
[6] = activators, categories activate / uncouple / inhibit
[7] = both [Ca2+], stated as size of decrease

T1 sequence (P16615 other isoform, or with tags, fused parts or gaps with the stated changes): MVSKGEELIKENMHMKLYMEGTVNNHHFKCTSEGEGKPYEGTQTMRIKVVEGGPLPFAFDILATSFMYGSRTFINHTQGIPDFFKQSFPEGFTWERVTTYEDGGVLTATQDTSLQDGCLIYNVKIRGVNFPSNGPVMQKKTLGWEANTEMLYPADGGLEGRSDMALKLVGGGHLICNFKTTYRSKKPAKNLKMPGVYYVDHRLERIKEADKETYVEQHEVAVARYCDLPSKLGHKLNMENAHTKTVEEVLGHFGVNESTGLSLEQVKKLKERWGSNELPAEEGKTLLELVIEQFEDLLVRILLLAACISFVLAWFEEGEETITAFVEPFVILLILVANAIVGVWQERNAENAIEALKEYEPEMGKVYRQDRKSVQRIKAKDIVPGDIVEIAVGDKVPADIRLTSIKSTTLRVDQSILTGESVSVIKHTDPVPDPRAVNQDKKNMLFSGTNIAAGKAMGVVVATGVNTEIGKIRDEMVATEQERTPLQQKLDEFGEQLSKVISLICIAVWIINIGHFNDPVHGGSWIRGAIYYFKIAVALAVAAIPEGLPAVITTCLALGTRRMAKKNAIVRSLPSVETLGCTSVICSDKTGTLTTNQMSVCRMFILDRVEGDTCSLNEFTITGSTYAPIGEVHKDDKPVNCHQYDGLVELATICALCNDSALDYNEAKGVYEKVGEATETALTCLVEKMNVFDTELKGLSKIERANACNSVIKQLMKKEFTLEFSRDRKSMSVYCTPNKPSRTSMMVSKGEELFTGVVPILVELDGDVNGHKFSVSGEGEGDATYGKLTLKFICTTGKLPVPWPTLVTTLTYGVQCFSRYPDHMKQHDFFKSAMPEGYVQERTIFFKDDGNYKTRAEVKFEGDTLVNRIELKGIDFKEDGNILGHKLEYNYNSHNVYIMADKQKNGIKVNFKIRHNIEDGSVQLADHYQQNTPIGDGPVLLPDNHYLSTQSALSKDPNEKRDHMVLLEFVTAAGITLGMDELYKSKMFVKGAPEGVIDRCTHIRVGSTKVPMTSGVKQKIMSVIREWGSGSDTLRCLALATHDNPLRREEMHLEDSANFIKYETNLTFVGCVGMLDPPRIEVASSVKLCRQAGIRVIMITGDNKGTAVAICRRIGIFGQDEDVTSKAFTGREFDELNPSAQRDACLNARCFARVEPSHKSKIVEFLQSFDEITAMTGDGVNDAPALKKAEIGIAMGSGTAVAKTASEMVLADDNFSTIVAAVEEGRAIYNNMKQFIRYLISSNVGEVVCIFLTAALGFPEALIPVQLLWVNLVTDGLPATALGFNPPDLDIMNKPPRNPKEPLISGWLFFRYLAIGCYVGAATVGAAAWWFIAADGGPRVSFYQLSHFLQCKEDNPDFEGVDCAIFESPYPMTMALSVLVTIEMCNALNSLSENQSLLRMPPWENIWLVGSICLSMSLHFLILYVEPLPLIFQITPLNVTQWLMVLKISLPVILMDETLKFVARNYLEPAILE
T2 sequence (P11607 1-997 isoform P11607-2): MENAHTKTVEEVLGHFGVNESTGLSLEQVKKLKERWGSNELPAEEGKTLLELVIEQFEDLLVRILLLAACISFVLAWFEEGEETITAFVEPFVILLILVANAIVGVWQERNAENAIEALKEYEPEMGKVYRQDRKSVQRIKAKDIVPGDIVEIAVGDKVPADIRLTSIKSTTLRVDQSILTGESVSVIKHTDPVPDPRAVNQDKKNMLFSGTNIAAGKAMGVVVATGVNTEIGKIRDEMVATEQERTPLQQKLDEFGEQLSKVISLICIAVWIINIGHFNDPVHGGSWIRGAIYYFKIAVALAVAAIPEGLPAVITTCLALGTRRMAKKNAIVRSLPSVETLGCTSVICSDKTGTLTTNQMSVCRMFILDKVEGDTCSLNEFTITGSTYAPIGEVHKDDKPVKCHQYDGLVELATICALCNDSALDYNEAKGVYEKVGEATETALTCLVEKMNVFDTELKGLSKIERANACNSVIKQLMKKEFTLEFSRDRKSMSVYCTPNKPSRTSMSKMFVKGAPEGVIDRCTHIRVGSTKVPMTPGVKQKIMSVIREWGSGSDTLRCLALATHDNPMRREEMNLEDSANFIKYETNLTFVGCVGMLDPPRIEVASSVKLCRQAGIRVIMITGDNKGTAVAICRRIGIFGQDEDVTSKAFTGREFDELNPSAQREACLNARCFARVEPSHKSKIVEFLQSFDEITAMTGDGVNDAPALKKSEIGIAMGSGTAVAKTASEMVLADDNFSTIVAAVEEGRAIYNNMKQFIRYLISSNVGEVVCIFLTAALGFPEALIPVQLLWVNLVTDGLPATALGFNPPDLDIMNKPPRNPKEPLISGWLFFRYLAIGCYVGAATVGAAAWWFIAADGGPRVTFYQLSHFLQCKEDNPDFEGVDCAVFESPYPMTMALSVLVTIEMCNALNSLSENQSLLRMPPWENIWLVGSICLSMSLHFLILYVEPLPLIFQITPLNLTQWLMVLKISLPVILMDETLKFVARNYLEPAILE

Compound | EC50 [1] | EC50 ([2]; [Ca2+]MAX (pCa5.4)) | Ca2+-ATPase C10 ([2]; [Ca2+]MAX (pCa5.4)) | Ca2+-ATPase ΔFMAX [2, 4] | Ca2+-ATPase ΔFMID [2, 5] | Effect on Ca2+-ATPase activity (category, Fig. 4A) [2, 6] | Ca2+-Uptake ΔFMAX [3, 4] | Ca2+-Uptake ΔFMID [3, 5] | Effect on Ca2+-uptake (category, Fig. 4A) [3, 6] | CR (coupling ratio) VU/VA [3] | Increase in Ca2+-uptake ([3]; over [Ca2+]MAX and [Ca2+]MID) | Ca2+-ATPase C10 ([2]; [Ca2+]MID (pCa6.2)) | Ca2+-Uptake C10 ([3]; [Ca2+]MAX (pCa5.4)) | Ca2+-Uptake C10 ([3]; [Ca2+]MID (pCa6.2)) | Inhibition of Ca2+-uptake (class) [3] | EC50 ([2]; [Ca2+]MID (pCa6.2)) | Decrease of ΔFMAX and ΔFMID for Ca2+-ATPase activity [2, 7] | Decrease of ΔFMAX and ΔFMID for Ca2+-uptake [3, 7]
CC1Cc2cc(CNC(=O)c3cc(C(C)C)nn3C)ccc2O1 (stereo not shown) [Compound 9, 3-isopropyl-1-methyl-N-[(2-methyl-2,3-dihydro-1-benzofuran-5-yl)methyl]-1H-pyrazole-5-carboxamide] | 0.6 ± 0.1 µM | 24 ± 9 µM | 30.7 µM | 21% and 21 ± 5% | 10% and 10 ± 6% | activate | 5 ± 2.2% | 3 ± 2.4% | uncouple | 0.51 | 3–5% and 0.5–10% | – | – | – | – | – | – | –
COc1ccc(Cn2cc(C(=O)N(C)Cc3ccnc4ccccc34)nn2)cc1 [Compound 10, 1-(4-methoxybenzyl)-N-methyl-N-(4-quinolinylmethyl)-1H-1,2,3-triazole-4-carboxamide] | 5.6 ± 0.6 µM | – | 7 µM | – | – | – | – | – | – | 0.35 | – | 3.2 µM | 4.1 µM | 7.9 µM | Mild → M; also recorded: mild-to-moderate | – | – | –
Cc1nc(N2CCCCCCC2)ncc1C(C)NC(=O)c1ccnn1C (stereo not shown) [Compound 18, N-{1-[2-(1-azocanyl)-4-methyl-5-pyrimidinyl]ethyl}-1-methyl-1H-pyrazole-5-carboxamide] | 3 ± 0.3 µM | – | 2.2 µM | – | – | – | – | – | – | 0.49 | – | 1 µM | 8.6 µM | 22.7 µM | Mild → M; also recorded: mild-to-moderate | 0.18 ± 0.2 µM | – | –
CCC(C)(C)c1nnc(NC(=O)NCc2ccc(F)cc2F)s1 [Compound 15, N-(2,4-difluorobenzyl)-N'-[5-(1,1-dimethylpropyl)-1,3,4-thiadiazol-2-yl]urea] | 16 ± 4.7 µM | – | 0.7 µM | – | – | – | – | – | – | 0.19 | – | 0.4 µM | 0.9 µM | 1.7 µM | – | – | ~ 50% | 70–95%
